Where “and” joins values, the source holds several entries; their conditions need not be identical. Identical values can stand only once. Like-named read-outs stand apart in the source and are kept apart here.

In general, melting point refers to the temperature of the solid-liquid transition. For orientation: IC50 means the concentration that gives 50% inhibition.

Data set [1] concerns the target T1, EGFR (Homo sapiens, UniProt P00533).
T1 construct: purchased Invitrogen PV3872
The data set is described as follows: In vitro enzymatic activity assay, EGFR kinase kit. Type of data set: biochemical. The following applies: for % Inhibition of EGFR: concentration not given; for IC50: mean ± SE of three independent experiments. The procedure:
(§1) EGFR and HER2 kinase kits were purchased from Invitrogen. […] ATP solution and a kinase/peptide mixture were prepared. The plate was incubated for 1 h at room temperature. About […] of the developing solution was added to each well. The plate was incubated for 1 h and then read by ELISA Reader (PerkinElmer, USA). Every experiment was repeated three times. Data represented as means ± SE from three independent experiments. Curve fitting was performed using Graph Pad Prism 5.

Data set [2] concerns MDA-MB-231 breast cancer cells. The data set is described as follows: MTT cytotoxicity assay against MDA-MB-231. Type of data set: cell-based. The conditions noted are these: Homo sapiens, mean ± SE of three independent experiments. How it is done: Cells were cultured using Dulbecco’s Modified Eagle’s Medium (Invitrogen/Life Technologies) supplemented with 10% FBS (Hyclone), 10 µg/mL of insulin, and 1% penicillin–streptomycin. Cells were seeded in 96-well plate with cells density 1.2–1.8 × 10,000 cells/well, in a volume of 100 µL complete growth medium + 100 µL of the tested compound per well and the plate was incubated for 24 h before the MTT assay. […] IC50 was calculated according to the equation of Boltzmann sigmoidal concentration-response curve using Graph Pad Prism 5.
A general note: Formazan colour is commonly taken as a measure of viable cells.

Data set [3] relates to Bax. In words: Bax expression level. The conditions noted are these: MDA-MB-231 cells, compared to the control cells. The format is cell-based, human.
The subject of data set [4] is MDA-MB-231 cell line. In words: Cell cycle distribution analysis (propidium iodide, DNA cytometer). Type of data set: cell-based, human. The following applies: MDA-MB-231 cells treated at IC50; for %Apoptosis: PreG1, control 0.97; for %G2-M: control 6.44; for %S: control 23.04; for %G0-G1: control 69.55. The procedure: Control cells with known DNA content (peripheral blood mononuclear cells) were used as a reference point for determining the DNA index for the test samples. The cells were stained with propidium iodide stain following the procedure provided by the kit then incubated at room temperature for 5 min in the dark and run on the DNA cytometer. Cell cycle distribution was calculated using […] software (Becton Dickinson Immunocytometry Systems, San Jose, CA, USA).

Data set [5] relates to Bcl2. In words: Bcl2 expression level. The format is cell-based, human. The following applies: MDA-MB-231 cells, compared to the control cells.
In data set [6] the test system is MDA-MB-231 cells. In words: Radiosensitizing activity (MTT with 8 Gy gamma irradiation). The conditions noted are these: Homo sapiens, light or radiation study. The format is cell-based. How it is done:
Irradiation was performed at the National Center for Radiation Research and Technology (NCRRT), Egyptian Atomic Energy Authority (EAEA), using gamma cell-40 (^137Cs) source. Compound 10 was selected to be re-evaluated for the in vitro antiproliferative activity in combination with γ-irradiation using MTT assay. Cells were incubated with compound 10 in molar concentrations of 0.01, 0.1, 1.0, and 10 µM. After 2 h, cells were subjected to a single dose of 8 Gy of γ-radiation at a dose rate of 0.758 rad/s for 17.73 min, and then the anti-proliferative activity was measured 48 h after irradiation. The IC50 of the tested compounds was calculated after irradiation.

Data set [7] is described as follows: MTT cytotoxicity against normal breast cells. Type of data set: cell-based. The following applies: human, 184A1 normal breast cells; MTT assay. The procedure: MDA-MB-231 breast cancer cells and 184A1 normal breast cells of American Type Culture Collection were obtained from VACSERA, Egypt. Cells were cultured using Dulbecco’s Modified Eagle’s Medium (Invitrogen/Life Technologies) supplemented with 10% FBS (Hyclone), 10 µg/mL of insulin, and 1% penicillin–streptomycin. Cells were seeded in 96-well plate with cells density 1.2–1.8 × 10,000 cells/well, in a volume of 100 µL complete growth medium + 100 µL of the tested compound per well and the plate was incubated for 24 h before the MTT assay. The cell layer was rinsed with 0.25% (w/v) trypsin, 0.53 mM EDTA solution, incubated for 2 h, then the absorbance was measured at a wavelength of 570 nm[30]. IC50 was calculated according to the equation of Boltzmann sigmoidal concentration-response curve using Graph Pad Prism 5.

The subject of data set [8] is caspase-3. The data set is described as follows: Active caspase-3 level immunoassay. Type of data set: cell-based, human. The conditions noted are these: for Caspase 3: level of active caspase-3, control 53.2. The procedure:
Cover and incubate for 2 h at room temperature. […] Incubate for 1 h then add 100 µL anti-rabbit IgG HRP working solution to each well and incubate for 30 min. The absorbance of each well was measured at 450 nm.

Data set [9] deals with T2, HER2 (Homo sapiens, UniProt P04626).
T2 construct: purchased Invitrogen PV3366
T2 sequence (P04626 23-1255): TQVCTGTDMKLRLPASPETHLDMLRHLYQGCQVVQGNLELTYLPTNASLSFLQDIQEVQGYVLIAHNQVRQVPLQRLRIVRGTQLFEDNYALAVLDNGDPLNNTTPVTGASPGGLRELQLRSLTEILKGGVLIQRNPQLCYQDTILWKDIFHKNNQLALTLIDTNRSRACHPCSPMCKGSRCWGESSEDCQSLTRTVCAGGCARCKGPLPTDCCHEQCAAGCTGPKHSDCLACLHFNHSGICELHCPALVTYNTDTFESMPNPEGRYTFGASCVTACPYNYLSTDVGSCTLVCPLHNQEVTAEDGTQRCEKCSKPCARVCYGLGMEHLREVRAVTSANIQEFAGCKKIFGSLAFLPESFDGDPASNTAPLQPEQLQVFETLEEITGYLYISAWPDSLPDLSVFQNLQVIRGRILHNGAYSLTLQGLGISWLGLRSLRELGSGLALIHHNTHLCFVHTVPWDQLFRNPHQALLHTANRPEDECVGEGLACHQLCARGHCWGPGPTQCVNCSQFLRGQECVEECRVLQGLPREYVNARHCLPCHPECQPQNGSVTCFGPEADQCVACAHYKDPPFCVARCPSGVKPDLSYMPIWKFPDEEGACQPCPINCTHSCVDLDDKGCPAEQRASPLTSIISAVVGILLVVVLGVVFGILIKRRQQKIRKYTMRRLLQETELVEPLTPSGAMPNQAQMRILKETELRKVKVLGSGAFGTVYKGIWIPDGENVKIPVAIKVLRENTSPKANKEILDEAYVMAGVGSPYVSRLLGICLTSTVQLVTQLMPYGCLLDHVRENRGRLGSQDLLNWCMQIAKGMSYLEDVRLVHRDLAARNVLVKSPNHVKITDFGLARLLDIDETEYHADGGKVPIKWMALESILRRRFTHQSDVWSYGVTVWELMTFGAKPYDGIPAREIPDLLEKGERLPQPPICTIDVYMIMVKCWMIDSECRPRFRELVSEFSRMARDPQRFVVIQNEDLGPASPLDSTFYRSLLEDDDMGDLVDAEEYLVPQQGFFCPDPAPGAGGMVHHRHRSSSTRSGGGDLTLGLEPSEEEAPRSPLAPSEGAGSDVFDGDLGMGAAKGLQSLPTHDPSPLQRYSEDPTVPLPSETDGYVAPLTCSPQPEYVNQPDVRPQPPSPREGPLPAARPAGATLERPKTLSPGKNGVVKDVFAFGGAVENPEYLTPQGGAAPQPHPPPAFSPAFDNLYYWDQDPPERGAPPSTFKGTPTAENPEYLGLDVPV
In words: In vitro enzymatic activity assay, HER2 kinase kit. The format is biochemical. The conditions noted are these: mean ± SE of three independent experiments. How it is done:
as §1

T1 sequence (P00533 25-1210): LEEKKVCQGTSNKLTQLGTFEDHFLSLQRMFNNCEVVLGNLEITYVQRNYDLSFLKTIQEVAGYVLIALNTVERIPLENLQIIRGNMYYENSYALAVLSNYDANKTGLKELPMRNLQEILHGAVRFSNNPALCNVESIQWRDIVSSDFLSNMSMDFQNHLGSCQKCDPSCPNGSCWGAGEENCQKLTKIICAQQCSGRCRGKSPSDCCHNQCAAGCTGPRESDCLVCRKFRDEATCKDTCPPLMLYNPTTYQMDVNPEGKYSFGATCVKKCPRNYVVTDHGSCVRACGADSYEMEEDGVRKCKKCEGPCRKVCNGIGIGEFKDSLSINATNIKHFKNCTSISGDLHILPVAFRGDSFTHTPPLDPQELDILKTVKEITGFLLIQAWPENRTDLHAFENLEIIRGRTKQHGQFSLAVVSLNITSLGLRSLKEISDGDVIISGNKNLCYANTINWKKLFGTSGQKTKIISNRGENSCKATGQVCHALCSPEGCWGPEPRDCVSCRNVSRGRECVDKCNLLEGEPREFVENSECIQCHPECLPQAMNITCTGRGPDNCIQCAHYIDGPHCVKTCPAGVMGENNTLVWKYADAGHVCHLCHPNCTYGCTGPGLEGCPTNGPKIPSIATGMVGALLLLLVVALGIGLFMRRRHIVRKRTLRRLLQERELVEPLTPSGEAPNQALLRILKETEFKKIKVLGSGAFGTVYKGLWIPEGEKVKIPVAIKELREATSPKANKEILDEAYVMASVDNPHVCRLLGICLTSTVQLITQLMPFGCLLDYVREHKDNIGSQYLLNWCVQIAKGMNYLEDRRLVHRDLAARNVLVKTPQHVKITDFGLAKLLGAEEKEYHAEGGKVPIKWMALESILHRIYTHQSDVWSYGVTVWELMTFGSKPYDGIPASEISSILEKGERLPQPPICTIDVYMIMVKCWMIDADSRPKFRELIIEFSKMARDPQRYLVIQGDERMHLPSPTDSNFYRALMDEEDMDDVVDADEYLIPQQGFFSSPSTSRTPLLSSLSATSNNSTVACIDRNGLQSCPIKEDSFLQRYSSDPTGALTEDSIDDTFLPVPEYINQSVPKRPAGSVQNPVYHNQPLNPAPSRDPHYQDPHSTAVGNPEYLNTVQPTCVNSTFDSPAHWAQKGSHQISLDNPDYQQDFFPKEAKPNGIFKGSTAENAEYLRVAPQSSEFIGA

The compound `Cc1cc(NC(=O)CSc2nc3cc4ccccc4cc3c(=O)n2-c2ccc(S(N)(=O)=O)cc2)no1` [Compound 5, N-(5-Methylisoxazol-3-yl)-2-[(4-oxo-3–(4-sulfamoylphenyl)-3,4-dihydrobenzo[g]quinazolin-2-yl)thio]acetamide] registered a melting point of 292.4 °C. In data set [1], the “% Inhibition of EGFR” value is 42.00%. The compound further had a concentration for half-maximal inhibition (IC50) in [2] of 2.47 ± 0.08 µM.
`NS(=O)(=O)c1ccc(-n2c(SCC(=O)Nc3nccs3)nc3cc4ccccc4cc3c2=O)cc1` [Compound 6, 2-[(4-Oxo-3-(4-sulfamoylphenyl)-3,4-dihydrobenzo[g]quinazolin-2-yl)thio]-N-(thiazol-2-yl)acetamide] showed a melting point of 304 °C. Besides, the “% Inhibition of EGFR” value in data set [1] was determined as 18.13%. In data set [2], this compound registered an IC50 of 23.2 ± 1.88 µM.
For `CCOc1ccc2nc(NC(=O)CSc3nc4cc5ccccc5cc4c(=O)n3-c3ccc(S(N)(=O)=O)cc3)sc2c1` [Compound 7, N-(6-Ethoxybenzo[d]thiazol-2-yl)-2-[(4-oxo-3-(4-sulfamoylphenyl)-3,4-dihydrobenzo[g]quinazolin-2-yl)thio]acetamide] the same measures were 255.9 °C, 25.98% and 26.5 ± 2.14 µM.
For `NS(=O)(=O)c1ccc(-n2c(SCC(=O)Nc3nc4ccc([N+](=O)[O-])cc4s3)nc3cc4ccccc4cc3c2=O)cc1` [Compound 8, N-(6-Nitrobenzo[d]thiazol-2-yl)-2-[(4-oxo-3-(4-sulfamoylphenyl)-3,4-dihydrobenzo[g]quinazolin-2-yl)thio]acetamide] the same measures were 278.3 °C, 54.61% and 2.91 ± 0.03 µM.
With `NS(=O)(=O)c1ccc(-n2c(SCC(=O)Nc3nnc(C(F)(F)F)s3)nc3cc4ccccc4cc3c2=O)cc1` [Compound 9, 2-[(4-Oxo-3-(4-sulfamoylphenyl)-3,4-dihydrobenzo[g]quinazolin-2-yl)thio]-N-(5-(trifluoromethyl)-1,3,4-thiadiazol-2-yl)acetamide], the melting point was found to be 257 °C. For the same compound, in data set [1], the “% Inhibition of EGFR” value was 52.49%. In data set [2], this compound returned a half-inhibitory concentration (IC50) of 2.19 ± 0.05 µM.
`Cc1ccc(NC(=O)CSc2nc3cc4ccccc4cc3c(=O)n2-c2ccc(S(N)(=O)=O)cc2)cc1C` [Compound 10, N-(3,4-Dimethylphenyl)-2-[(4-oxo-3-(4-sulfamoylphenyl)-3,4-dihydrobenzo[g]quinazolin-2-yl)thio]acetamide] returned a melting point of 232.8 °C. The “Bax (Folds)” value in data set [3] is 9 Folds and 9.372 Folds. The compound also displayed an IC50 in data set [1] of 3.9 ± 0.03 µM. Besides, in data set [4], the “%Apoptosis” value is listed as 14.84%, the “%G2-M” value is reported as 17.52%, the “%S” value is given as 18.28% and the “%G0-G1” value stood at 49.36%. Also, the “Bcl2 (Folds)” value in [5] was 0.14 Folds and 0.1379 Folds. Also, in [2], the IC50 stood at 0.31 ± 0.01 µM. Further, the IC50 in data set [6] (no irradiation, read-out: IC50 before Irradiation) amounted to 0.31 ± 0.01 µM. Also, the IC50 in data set [6] (single dose of 8 Gy γ-radiation, measured 48 h after irradiation, read-out: IC50 after Irradiation) turned out to be 0.22 ± 0.03 µM. Further, it took 84.5 ± 0.72 µM to reach half-maximal inhibition in [7] (IC50 at 24 h). The “Caspase 3 Folds” value in [8] (increase compared to the control cells) is 10 Folds and 10.25 Folds. Further, the “Caspase 3” value in data set [8] was 545.7 pg/mL. Also, the midpoint of inhibition in [9], the IC50, lay at 5.4 ± 0.12 µM.
For `Cc1ccc(C)c(NC(=O)CSc2nc3cc4ccccc4cc3c(=O)n2-c2ccc(S(N)(=O)=O)cc2)c1` [Compound 11, N-(2,5-Dimethylphenyl)-2-[(4-oxo-3-(4-sulfamoylphenyl)-3,4-dihydrobenzo[g]quinazolin-2-yl)thio]acetamide], the melting point is 279.3 °C. The compound further returned an IC50 in [1] of 2.55 ± 0.17 µM. Further, the IC50 in [2] worked out at 0.28 ± 0.01 µM. Further, in data set [9], the IC50 came out at 31.31 ± 0.31 µM.
`Cc1cccc(C)c1NC(=O)CSc1nc2cc3ccccc3cc2c(=O)n1-c1ccc(S(N)(=O)=O)cc1` [Compound 12, N-(2,6-Dimethylphenyl)-2-[(4-oxo-3-(4-sulfamoylphenyl)-3,4-dihydrobenzo[g]quinazolin-2-yl)thio]acetamide] had a melting point of 300.5 °C. Further, the “% Inhibition of EGFR” value in data set [1] is recorded as 41.86%. The IC50 in data set [2] stood at 2.19 ± 0.09 µM.
Turning to `Cc1cc([N+](=O)[O-])ccc1NC(=O)CSc1nc2cc3ccccc3cc2c(=O)n1-c1ccc(S(N)(=O)=O)cc1` [Compound 13, N-(2-Methyl-4-nitrophenyl)-2-[(4-oxo-3-(4-sulfamoylphenyl)-3,4-dihydrobenzo[g]quinazolin-2-yl)thio]acetamide], the melting point stood at 293.8 °C. Also, the IC50 in [1] is 10.2 ± 0.1 µM. Further, the IC50 in [2] stood at 0.4 ± 0.01 µM. The compound also had an IC50 in data set [9] of 13.01 ± 0.09 µM.
`NS(=O)(=O)c1ccc(-n2c(SCC(=O)Nc3c[nH]c(=O)[nH]c3=O)nc3cc4ccccc4cc3c2=O)cc1` [Compound 14, N-(2,4-Dioxo-1,2,3,4-tetrahydropyrimidin-5-yl)-2-[(4-oxo-3-(4-sulfamoylphenyl)-3,4-dihydrobenzo[g]quinazolin-2-yl)thio]acetamide]: the melting point was 280 °C. This compound also showed a half-inhibitory concentration (IC50) in [1] of 4.11 ± 0.02 µM. In [2], this compound gave a 50% inhibitory concentration (IC50) of 0.37 ± 0.01 µM. This compound also showed an IC50 in data set [9] of 26.03 ± 0.22 µM.
In the case of `Cn1c(NC(=O)CSc2nc3cc4ccccc4cc3c(=O)n2-c2ccc(S(N)(=O)=O)cc2)cc(=O)n(C)c1=O` [Compound 15, N-(1,3-Dimethyl-2,6-dioxo-1,2,3,6-tetrahydropyrimidin-4-yl)-2-[(4-oxo-3-(4-sulfamoylphenyl)-3,4-dihydrobenzo[g]quinazolin-2-yl)thio]acetamide], the melting point was 307.7 °C. The “% Inhibition of EGFR” value in data set [1] was 21.45%. In addition, the concentration for half-maximal inhibition (IC50) in data set [2] amounted to 21.8 ± 1.63 µM.
With `NS(=O)(=O)c1ccc(-n2c(SCC(=O)Nc3cnccn3)nc3cc4ccccc4cc3c2=O)cc1` [Compound 16, 2-[(4-Oxo-3-(4-sulfamoylphenyl)-3,4-dihydrobenzo[g]quinazolin-2-yl)thio]-N-(pyrazin-2-yl)acetamide], the melting point is 205.7 °C. For the same compound, the “% Inhibition of EGFR” value in [1] stood at 59.66%. In addition, the IC50 in [2] came to 0.32 ± 0.01 µM.
In the case of `NS(=O)(=O)c1ccc(-n2c(SCC(=O)Nc3cccc4ccccc34)nc3cc4ccccc4cc3c2=O)cc1` [Compound 17, N-(Naphthalene-1-yl)-2-[(4-oxo-3-(4-sulfamoylphenyl)-3,4-dihydrobenzo[g]quinazolin-2-yl)thio]acetamide], the melting point is 241.6 °C. In addition, the “% Inhibition of EGFR” value in data set [1] amounted to 8.71%. The midpoint of inhibition in data set [2], the IC50, lay at 161 ± 4.69 µM.
For the compound `NS(=O)(=O)c1ccc(-n2c(SCC(=O)Nc3ccc4c(c3)C(=O)c3ccccc3C4=O)nc3cc4ccccc4cc3c2=O)cc1` [Compound 18, N-(9,10-Dioxo-9,10-dihydroanthracen-2-yl)-2-[(4-oxo-3-(4-sulfamoylphenyl)-3,4-dihydrobenzo[g]quinazolin-2-yl)thio]acetamide], the melting point turned out to be 256.7 °C. Also, the IC50 in data set [1] was found to be 9.66 ± 0.08 µM. The compound further returned a 50% inhibitory concentration (IC50) in [2] of 0.26 ± 0.01 µM. Besides, it took 3.2 ± 0.04 µM to reach half-maximal inhibition in data set [9] (IC50).
Take `C#Cc1cccc(Nc2ncnc3cc(OCCOC)c(OCCOC)cc23)c1` [Erlotinib, N-(3-ethynylphenyl)-6,7-bis(2-methoxyethoxy)quinazolin-4-amine, reference compound]: in data set [4], the “%Apoptosis” value was 17.33%, the “%G2-M” value came to 24.81%, the “%S” value is 16.31% and the “%G0-G1” value was 41.55%. Besides, it took 102 ± 3.55 µM to reach half-maximal inhibition in data set [7] (IC50 at 24 h). Besides, the “Caspase 3” value in data set [8] came to 480.1 pg/mL.
